From article PMC12251151, “Understanding Anti-Obesity Potential of Four Porphyrin Compounds by Investigating Pancreatic Lipase Inhibition” (Molecules, 2025) come the findings set out here.

Usually IC50 stands for the concentration that inhibits the measured activity by half. Lower therefore signals higher potency.

Assay [1] has as its target T1, pancreatic lipase (PL) (Sus scrofa, UniProt P00591).
T1 construct: lipase (porcine pancreas); purchased Shanghai Yuanye Co., Ltd., Shanghai, China; host or cells: porcine pancreas
T1 sequence (P00591 1-450): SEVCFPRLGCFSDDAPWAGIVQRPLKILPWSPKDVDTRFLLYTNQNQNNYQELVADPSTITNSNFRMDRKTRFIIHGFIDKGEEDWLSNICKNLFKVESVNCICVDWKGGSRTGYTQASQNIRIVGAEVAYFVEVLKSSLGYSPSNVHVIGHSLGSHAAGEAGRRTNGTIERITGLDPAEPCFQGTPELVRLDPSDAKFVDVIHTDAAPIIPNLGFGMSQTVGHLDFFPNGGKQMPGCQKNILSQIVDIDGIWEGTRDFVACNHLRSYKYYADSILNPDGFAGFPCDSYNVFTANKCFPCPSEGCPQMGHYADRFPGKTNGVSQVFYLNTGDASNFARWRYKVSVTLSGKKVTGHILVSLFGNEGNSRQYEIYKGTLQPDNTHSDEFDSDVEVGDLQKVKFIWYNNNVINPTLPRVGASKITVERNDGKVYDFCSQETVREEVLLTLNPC
Nature of the assay: FT-IR spectroscopy secondary structure analysis of PL-porphyrin complex. Further details: species or system porcine. The following applies: PL:porphyrin molar ratio 1:2; for β-Antiparallel of PL in complex: PL alone 7.78 ± 0.02; for Random Coil of PL in complex: PL alone 16.30 ± 0.04; for β-Turn of PL in complex: PL alone 23.12 ± 0.03; for α-Helix of PL in complex: PL alone 25.48 ± 0.06; for β-Sheet of PL in complex: PL alone 27.31 ± 0.06. The source says: The effects of four porphyrin compounds on the secondary structure of PL were further studied by FT-IR spectroscopy. The amide I band (1700–1600 cm^−1, mainly C=O stretching) and the amide II band (1600–1500 cm^−1, mainly C-N stretching) are important spectral bands for studying the secondary structure of proteins. Because the regions of amide I band located at 1649–1660, 1615–1637, 1661–1680, 1638–1648, and 1681–1692 cm^−1 after curve fitting represent α-helix, β-sheet, β-turn, random coil and β-antiparallel, respectively, and the signal intensity is high, it is more widely evaluated than the amide II band.
The pancreatic lipase-porphyrin compound solution with a molar ratio of 1:2 was placed in a freeze-centrifugal concentrator Auto R1-plus (Beijing Jiaimu, Beijing, China). The dried solid samples were obtained and mixed with dried KBr, ground, and pressed into tablets, and then detected by Nicolet IS-50 (ThermoFisher, Waltham, MA, USA) instrument. The scanning range was 400–4000 cm^−1 and the resolution was 4 cm^−1. Peakfit V4.12 software was used to fit the amide I region (1600–1700 cm^−1) of pancreatic lipase.

The target of assay [2] is T1, pancreatic lipase (PL). Kind of assay: Pancreatic lipase inhibition assay (4-nitrophenyl laurate substrate, absorbance 420 nm). It is filed as biochemical, porcine. The following applies: 37 °C, 2 h, pH 8.2 Tris-HCl. On the procedure:
A total of 250 mg pancreatic lipase was dissolved in 50 mL ultrapure water. After centrifugation at 5000 r/min for 10 min, the supernatant was taken. Then, 80 mg of 4-nitrophenyl laurate was dissolved in 100 mL of 5 mmol/L sodium acetate solution (pH 5.0, containing 1% triton x-100), and dissolved in a boiling water bath. After cooling to room temperature, it was set aside. […] The blank sample solutions were chromatographic methanol solutions containing 2%, 5%, and 10% DMSO.
The activity of PL was determined by referring to the method and making appropriate modifications. A total of 200 μL of different concentrations of four porphyrin compounds, 500 μL of 4-nitrophenyl laurate (0.80 mg/mL), 400 μL of Tris-HCl buffer (pH 8.2, 0.1 mol/L), and 300 μL of pancreatic lipase (5 mg/mL) were reacted in an incubator at 37 °C for 2 h. The reaction solution was centrifuged at 12,000 rpm for 5 min, and 200 μL of the supernatant was added to a 96-well plate.

Regarding `O=C([O-])c1ccc(C2=C3C=CC(=N3)C(c3ccc(C(=O)[O-])cc3)=C3C=CC(=N3)C(=c3ccc(=C([O-])[O-])cc3)c3ccc([n-]3)C(c3ccc(C(=O)[O-])cc3)=C3C=CC2=N3)cc1.[67Cu+2].[H+].[H+].[H+].[H+]` [Cu-TCPP, Cu (II) meso-Tetra (4-carboxyphenyl) porphine], at pancreatic lipase (PL) [1], the “β-Antiparallel of PL in complex” value came to 0.87 ± 0.01%, the “Random Coil of PL in complex” value was found to be 23.40 ± 0.06%, the “β-Turn of PL in complex” value was 13.51 ± 0.03% and the “α-Helix of PL in complex” value stood at 15.78 ± 0.05%. The “β-Sheet of PL in complex” value on pancreatic lipase (PL) [1] is listed as 46.44 ± 0.13%. This compound also yielded a 50% inhibitory concentration (IC50) against pancreatic lipase (PL) [2] of 249 µM.
Regarding `Nc1ccc(-c2c3nc(c(-c4ccc(N)cc4)c4ccc([nH]4)c(-c4ccc(N)cc4)c4nc(c(-c5ccc(N)cc5)c5ccc2[nH]5)C=C4)C=C3)cc1` [TAPP, 5,10,15,20-Tetrakis (4-aminophenyl) porphyrin], at pancreatic lipase (PL) [1], the “β-Antiparallel of PL in complex” value came out at 8.26 ± 0.02%, the “Random Coil of PL in complex” value was found to be 24.25 ± 0.07%, the “β-Turn of PL in complex” value is on record as 18.09 ± 0.04% and the “α-Helix of PL in complex” value is 12.81 ± 0.03%. Besides, the “β-Sheet of PL in complex” value at pancreatic lipase (PL) [1] was 36.59 ± 0.07%. Moreover, the IC50 on pancreatic lipase (PL) [2] is 236 µM.
Take `O=C(O)c1ccc(-c2c3nc(c(-c4ccc(C(=O)O)cc4)c4ccc([nH]4)c(-c4ccc(C(=O)O)cc4)c4nc(c(-c5ccc(C(=O)O)cc5)c5ccc2[nH]5)C=C4)C=C3)cc1` [TCPP, meso-Tetra (4-carboxyphenyl) porphine]: on pancreatic lipase (PL) [1], the “β-Antiparallel of PL in complex” value is 4.82 ± 0.01%, the “Random Coil of PL in complex” value turned out to be 24.70 ± 0.06%, the “β-Turn of PL in complex” value is given as 10.43 ± 0.03% and the “α-Helix of PL in complex” value turned out to be 22.26 ± 0.08%. The “β-Sheet of PL in complex” value at pancreatic lipase (PL) [1] is 37.79 ± 0.12%. The same compound returned an IC50 against pancreatic lipase (PL) [2] of 100 µM.
For the compound `Oc1ccc(-c2c3nc(c(-c4ccc(O)cc4)c4ccc([nH]4)c(-c4ccc(O)cc4)c4nc(c(-c5ccc(O)cc5)c5ccc2[nH]5)C=C4)C=C3)cc1` [THPP, 5,10,15,20-Tetrakis (4-hydroxyphenyl) porphyrin], at pancreatic lipase (PL) [1], the “β-Antiparallel of PL in complex” value is recorded as 8.32 ± 0.01%, the “Random Coil of PL in complex” value is on record as 20.38 ± 0.02%, the “β-Turn of PL in complex” value came to 19.70 ± 0.04% and the “α-Helix of PL in complex” value worked out at 13.96 ± 0.04%. In addition, the “β-Sheet of PL in complex” value at pancreatic lipase (PL) [1] came out at 37.64 ± 0.05%. Also, the half-maximal inhibitory concentration (IC50) at pancreatic lipase (PL) [2] turned out to be 97.5 µM.
